Patent US12344610B2, “APOL1 inhibitors and methods of use” (Maze Therapeutics, Inc., priority 2022, dated 2025)
Like-named read-outs stand apart in the source and are kept apart here.

Assays:
Format in all cases: cell-based
[1] = test system: HEK293 clonal cell line overexpressing APOL1 G1; assay: APOL1 G1 HEK293 cell rescue assay (Example B3); conditions: geometric mean of at least 2 runs, † = single run, ¥ = concentration at 50% rescue estimated (no sigmoidal curve)
Summary of the method: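 HEK293 clonal line overexpressing APOL1 G1; EC50 is half-maximal reversal of APOL1-induced cell death. Values are the geometric mean of ≥2 runs on separate days, each run the average of duplicate wells. Where no sigmoidal curve could be fitted, the concentration giving 50% rescue was estimated.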

[2] = test system: Trypanosoma brucei Lister 427 VSG221 with APOL1 G0 recombinant protein; assay: APOL1 G0 trypanosome cell rescue assay (Example B5); conditions: geometric mean of at least 2 assay runs, † = single assay run
Summary of the method: (§1)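 Recombinant mature APOL1 (residues 28-398, His-tag removed, E. coli-expressed, refolded from inclusion bodies, DDM buffer) at […] added with 250 trypanosomes/well in modified HMI-9 media. Duplicate 11-point 2-fold compound series, 0.4% DMSO; 20 h at 37° C, 5% CO2, then CellTiter-Glo luminescence for viability.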

[3] = test system: Trypanosoma brucei Lister 427 VSG221 with APOL1 G1 recombinant protein; assay: APOL1 G1 trypanosome cell rescue assay (Example B5); conditions: geometric mean of at least 2 assay runs, † = single assay run
Summary of the method: as §1

[4] = Homo sapiens, HEK293, HEK293 clonal line overexpressing APOL1 G1
[5] = Trypanosoma brucei, 20 h, read-out: APOL1 G0 Trypanosome Rescue EC50, Trypanosoma brucei Lister 427 VSG221 with APOL1 G0 recombinant protein, 20 hours, CellTiter-Glo
[6] = Trypanosoma brucei, 20 h, read-out: APOL1 G1 Trypanosome Rescue EC50, Trypanosoma brucei Lister 427 VSG221 with APOL1 G1 recombinant protein, 20 hours, CellTiter-Glo
[7] = HEK293 clonal line overexpressing APOL1 G1
[8] = read-out: APOL1 G0 Trypanosome Rescue EC50, Trypanosoma brucei Lister 427 VSG221 with APOL1 G0 recombinant protein, 20 hours, CellTiter-Glo
[9] = read-out: APOL1 G1 Trypanosome Rescue EC50, Trypanosoma brucei Lister 427 VSG221 with APOL1 G1 recombinant protein, 20 hours, CellTiter-Glo

| SMILES | EC50 [1, 4] [nM] | EC50 [2, 5] [nM] | EC50 [3, 6] [nM] | EC50 [1, 7] [nM] | EC50 [2, 8] [nM] | EC50 [3, 9] [nM] |
| --- | --- | --- | --- | --- | --- | --- |
| CC(c1ccc(OCCN2CCC3(CC2)C(=O)Nc2ccc(Cl)cc23)cc1)S(C)(=O)=O (single isomer, unassigned) [Compound 39, 5-chloro-1′-(2-{4-[(1S) or (1R)-1-methanesulfonylethyl]phenoxy}ethyl)-1,2-dihydrospiro[indole-3,4′-piperidin]-2-one] | > 247 | 156 | 206 | – | – | – |
| O=C1CCc2cc(OCCN3CCC4(CC3)C(=O)Nc3ccc(Cl)cc34)cnc2N1[C@H]1C[C@@H](CO)C1 (single isomer, unassigned) [Compound 319, 5-chloro-1′-[2-({7-oxo-8-[(cis)-3-(hydroxymethyl)cyclobutyl]-5,6,7,8-tetrahydro-1,8-naphthyridin-3-yl}oxy)ethyl]-1,2-dihydrospiro[indole-3,4′-piperidin]-2-one] | 118 | 69.7 | 81.1 | – | – | – |
| CC[C@]1(O)C[C@@H](N2C(=O)CCc3cc(OCCN4CCC5(CC4)C(=O)Nc4ccc(Cl)cc45)cnc32)C1 (single isomer, unassigned) [Compound 321, 5-chloro-1′-[2-({7-oxo-8-[(cis)-3-ethyl-3-hydroxycyclobutyl]-5,6,7,8-tetrahydro-1,8-naphthyridin-3-yl}oxy)ethyl]-1,2-dihydrospiro[indole-3,4′-piperidin]-2-one] | 47.7 | 39.6 | 45.9 | – | – | – |
| CC1(O)CC(CN2C(=O)CCc3cc(OCCN4CCC5(CC4)C(=O)Nc4ccc(Cl)cc45)cnc32)C1 (single isomer, unassigned) [Compound 322, 5-chloro-1′-{2-[(7-oxo-8-{[(trans) or (cis)-3-hydroxy-3-methylcyclobutyl]methyl}-5,6,7,8-tetrahydro-1,8-naphthyridin-3-yl)oxy]ethyl}-1,2-dihydrospiro[indole-3,4′-piperidin]-2-one] | – | – | – | 38.6 | 29.3 | 34.9 |
| C[C@]1(O)C[C@@H](n2ncc3cc(OCCN4CCC5(CC4)C(=O)Nc4ccc(Cl)cc45)cnc32)C1 (single isomer, unassigned) [Compound 357, 5-chloro-1′-[2-({1-[(cis)-3-hydroxy-3-methylcyclobutyl]-1H-pyrazolo[3,4-b]pyridin-5-yl}oxy)ethyl]-1,2-dihydrospiro[indole-3,4′-piperidin]-2-one] | 35.3 | 61.2 | 91.6 | – | – | – |
| CC1(O)CC(c2ncc(OCCN3CCC4(CC3)C(=O)Nc3ccc(Cl)cc34)cn2)C1 (single isomer, unassigned) [Compound 393, 5-chloro-1′-[2-({2-[(cis) or (trans)-3-hydroxy-3-methylcyclobutyl]pyrimidin-5-yl}oxy)ethyl]-1,2-dihydrospiro[indole-3,4′-piperidin]-2-one] | – | – | – | 159 | 300 | 360 |
| C[C@]1(O)C[C@H](n2ncc3cc(OCCN4CCC5(CC4)C(=O)Nc4ccc(Cl)cc45)cnc32)C1 (single isomer, unassigned) [Compound 408, 5-chloro-1′-[2-({1-[(trans)-3-hydroxy-3-methylcyclobutyl]-1H-pyrazolo[3,4-b]pyridin-5-yl}oxy)ethyl]-1,2-dihydrospiro[indole-3,4′-piperidin]-2-one] | 56 | 84.8 | 121 | – | – | – |
| C[C@]1(O)C[C@@H](N2C(=O)CCc3cc(OCCN4CCC5(CC4)C(=O)Nc4ccc(OC(F)F)cc45)cnc32)C1 [Cmpd 325, 5-(difluoromethoxy)-1′-[2-({7-oxo-8-[(cis)-3-hydroxy-3-methylcyclobutyl]-5,6,7,8-tetrahydro-1,8-naphthyridin-3-yl}oxy)ethyl]-1,2-dihydrospiro[indole-3,4′-piperidin]-2-one] | 197 | 213 | 269 | – | – | – |
| CC(c1ncc(OCCN2CCC3(CC2)C(=O)Nc2ccc(Cl)cc23)cn1)S(C)(=O)=O (stereo not shown) [Compound 1, 5-Chloro-1′-(2-{[2-(1-methanesulfonylethyl)pyrimidin-5-yl]oxy}ethyl)-1,2-dihydrospiro[indole-3,4′-piperidin]-2-one] | 302 | 225 | 293 | – | – | – |
| CS(=O)(=O)C1(c2ncc(OCCN3CCC4(CC3)C(=O)Nc3ccc(Cl)cc34)cn2)CC1 [Compound 4, 5-chloro-1′-(2-{[2-(1-methanesulfonylcyclopropyl)pyrimidin-5-yl]oxy}ethyl)-1,2-dihydrospiro[indole-3,4′-piperidin]-2-one] | 177 | 116 | 171 | – | – | – |
| Cc1nc(-c2ccc(OCCN3CCC4(CC3)C(=O)N(C)c3ccccc34)cc2)no1 [Compound 35, 1-methyl-1′-{2-[4-(5-methyl-1,2,4-oxadiazol-3-yl)phenoxy]ethyl}-1,2-dihydrospiro[indole-3,4′-piperidin]-2-one] | 488 | > 4000 | > 4000 | – | – | – |
| CC(=O)N1CCCc2cc(OCCN3CCC4(CC3)C(=O)N(C)c3ccccc34)ccc21 [Compound 36, 1′-{2-[(1-acetyl-1,2,3,4-tetrahydroquinolin-6-yl)oxy]ethyl}-1-methyl-1,2-dihydrospiro[indole-3,4′-piperidin]-2-one] | > 2150 | > 4000 | > 4000 | – | – | – |
| CS(=O)(=O)c1c(F)cc(OCCN2CCC3(CC2)C(=O)Nc2ccccc23)cc1F [Compound 42, 1′-[2-(3,5-difluoro-4-methanesulfonylphenoxy)ethyl]-1,2-dihydrospiro[indole-3,4′-piperidin]-2-one] | 1080 | 1260 | 1880 | – | – | – |
| O=C1Nc2ccc(Cl)cc2C12CCN(CCOc1ccc(S(=O)(=O)C3CC3)cc1)CC2 [Compound 43, 5-chloro-1′-{2-[4-(cyclopropanesulfonyl)phenoxy]ethyl}-1,2-dihydrospiro[indole-3,4′-piperidin]-2-one] | 131 | 52.2 | 86.6 | – | – | – |
| O=C1Nc2ccccc2C12CCN(CCOc1ccc(S(=O)(=O)C(F)F)cc1)CC2 [Compound 44, 1′-[2-(4-difluoromethanesulfonylphenoxy)ethyl]-1,2-dihydrospiro[indole-3,4′-piperidin]-2-one] | 478 | 331 | 429 | – | – | – |
| NC(=O)c1ccc(OCCN2CCC3(CC2)C(=O)Nc2ccc(Cl)cc23)cc1 [Compound 45, 4-(2-{5-chloro-2-oxo-1,2-dihydrospiro[indole-3,4′-piperidin]-1′-yl}ethoxy)benzamide] | 387 | 476 | 747 | – | – | – |
| NC(=O)c1ccc(OCCN2CCC3(CC2)C(=O)Nc2ccc(Cl)cc23)cc1F [Compound 46, 4-(2-{5-chloro-2-oxo-1,2-dihydrospiro[indole-3,4′-piperidin]-1′-yl}ethoxy)-2-fluorobenzamide] | 253 | 156 | 215 | – | – | – |
| Cc1cc(OCCN2CCC3(CC2)C(=O)Nc2ccc(Cl)cc23)ccc1C(N)=O [Compound 49, 4-(2-{5-chloro-2-oxo-1,2-dihydrospiro[indole-3,4′-piperidin]-1′-yl}ethoxy)-2-methylbenzamide] | 260 | 213 | 304 | – | – | – |
| CS(=O)(=O)c1ccc(OCCN2CCC3(CC2)C(=O)Nc2ccc(Cl)cc23)cc1C#N [Compound 50, 5-(2-{5-chloro-2-oxo-1,2-dihydrospiro[indole-3,4′-piperidin]-1′-yl}ethoxy)-2-methanesulfonylbenzonitrile] | 91.1 | 30 | 44.9 | – | – | – |
| CS(=O)(=O)N1CCCc2cc(OCCN3CCC4(CC3)C(=O)Nc3ccc(Cl)cc34)ccc21 [Compound 53, 5-chloro-1′-{2-[(1-methanesulfonyl-1,2,3,4-tetrahydroquinolin-6-yl)oxy]ethyl}-1,2-dihydrospiro[indole-3,4′-piperidin]-2-one] | 219 | 156 | 157 | – | – | – |
| CC(=O)N1CCCc2cc(OCCN3CCC4(CC3)C(=O)Nc3ccc(Cl)cc34)ccc21 [Compound 56, 1′-{2-[(1-acetyl-1,2,3,4-tetrahydroquinolin-6-yl)oxy]ethyl}-5-chloro-1,2-dihydrospiro[indole-3,4′-piperidin]-2-one] | 330 | 296 | 319 | – | – | – |
| C[C@]1(O)C[C@@H](n2cnc3cc(OCCN4CCC5(CC4)C(=O)Nc4ccc(C(F)F)cc45)cc(C(F)(F)F)c32)C1 [Compound 450, 5-(difluoromethyl)-1′-[2-({1-[(cis)-3-hydroxy-3-methylcyclobutyl]-7-(trifluoromethyl)-1H-1,3-benzodiazol-5-yl}oxy)ethyl]-1,2-dihydrospiro[indole-3,4′-piperidin]-2-one] | 14.9 | – | – | – | – | – |
